From patent publication US20240150293A1, “SPIROCYCLOHEXANE DERIVATIVES, PHARMACEUTICAL COMPOSITIONS CONTAINING THEM AND THEIR USES AS ANTI-APOPTOTIC INHIBITORS” (LES LABORATOIRES SERVIER, priority 2021, published 2024)
Where two headings read alike, the source gives them in different places.

Columns and labels:
NCI-H929 cell lines = experiment: In vitro cytotoxicity, CellTiter-Glo (CTG) assay (Example B, Method B); assay type: cell-based; conditions: NCI-H929 cells, 48 h incubation, read-out: C50
Method: Cellular viability was monitored with the cell viability assay (Cell Titer-Glo®) on NCI-H929 cell lines. The CellTiter-Glo® (CTG) Luminescent Cell Viability Assay (from Promega) is a homogeneous method to determine the number of viable cells in culture based on quantitation of the ATP present, which signals the presence of metabolically active cells.
Concentration response of test compounds are performed with 10 mM stock solutions (DMSO), 11-points curve, in a 384-well compound plate. The assay plate is prepared by stamping 120 nL from compound dilution plate of all different concentrations (e.g. 10 mM to have final 30 μM assay test) into a cell culture microplate, using Echo acoustic liquid handling (Labcyte, Beckman). 40 μl of cell solution is added and cells are incubated with compounds for 48 h at 37° C., 5% CO2. CTG was added to the cells (according to the manufacturer instructions) and luminescence intensity was recorded using the Pherastar plate reader (BMG).
This assay provides in vitro cellular efficacy of compounds of Formula (I) tested, measuring the C50, defined as the concentration needed to reach 50% of the cellular viability.

[1] = biological target: Cy5-labelled Mcl1 (amino acids 171-321) C286S protein (UniProtKB Q07820) (Homo sapiens (Human), UniProt Q07820, C286S); experiment: Inhibition of Mcl-1 by the fluorescence quenching assay (Example A, Method B); assay type: binding
How it was run: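 Cy5-labelled Mcl1 171-321 C286S (1 nM) quenched by TQ5WS-labelled PUMA peptide (10, 20 or 400 nM); displacement raises fluorescence (Ex 620/Em 680 nm). Buffer 10 mM HEPES, 150 mM NaCl, 0.05% Tween 20, pH 7.4, 5% DMSO; 2 h at room temperature, 11-point curves, IC50 converted to Ki (cKi/eKi).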

Cy5-labelled Mcl1 (amino acids 171-321) C286S protein, sequence (Q07820 171-321 C286S): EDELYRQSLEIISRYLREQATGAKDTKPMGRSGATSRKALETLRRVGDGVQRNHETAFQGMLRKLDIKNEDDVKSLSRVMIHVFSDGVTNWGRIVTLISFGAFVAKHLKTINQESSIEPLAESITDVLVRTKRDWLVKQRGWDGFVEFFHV

SMILES	Ki [1] [nM]	Ki ([1]; Ki determined from IC50) [nM]	IC50 (NCI-H929 cell lines; Homo sapiens, NCI-H929, 48 h) [nM]	IC50 (NCI-H929 cell lines) [nM]
COC[C@H]1C[C@@H]1c1ccc2c(c1)[C@]1(CC[C@@](Nc3cccc(Cl)c3)(C(=O)O)CC1)[C@@H](C[C@@H](C)COc1ccnc3c1[C@H](C)CCC3)C2 [Example 874, (1r,2′S,4S)-4-(3-chloroanilino)-6′-[(1S,2S)-2-(methoxymethyl)cyclopropyl]-2′-[(2R)-2-methyl-3-{[(5R)-5-methyl-5,6,7,8-tetrahydroquinolin-4-yl]oxy}propyl]-2′,3′-dihydrospiro[cyclohexane-1,1′-indene]-4-carboxylic acid]	0.161	–	113	–
C[C@@H](COc1ccnc2c1[C@H](C)CCC2)C[C@H]1Cc2cc(Cl)c(OC3CCCC3)cc2[C@]12CC[C@@](Nc1cccc(Cl)c1)(C(=O)O)CC2 [Example 821, (1r,2′S,4S)-5′-chloro-4-(3-chloroanilino)-6′-(cyclopentyloxy)-2′-[(2R)-2-methyl-3-{[(5R)-5-methyl-5,6,7,8-tetrahydroquinolin-4-yl]oxy}propyl]-2′,3′-dihydrospiro[cyclohexane-1,1′-indene]-4-carboxylic acid]	0.408	–	536	–
C[C@@H](COc1ccnc2c1[C@H](C)CCC2)CC1Cc2c(Cl)c(Cl)ccc2[C@]12CC[C@@](Nc1cccc(Cl)c1)(C(=O)O)CC2 (single isomer, unassigned) [Example 752]	0.321	–	–	344
C[C@@H](COc1ccnc2c1[C@H](C)CCC2)C[C@H]1Cc2ccccc2[C@]12CC[C@@](Nc1ccc(F)c(Cl)c1F)(C(=O)O)CC2 [Example 707, (1r,2′S,4S)-4-(3-chloro-2,4-difluoroanilino)-2′-[(2R)-2-methyl-3-{[(5R)-5-methyl-5,6,7,8-tetrahydroquinolin-4-yl]oxy}propyl]-2′,3′-dihydrospiro[cyclohexane-1,1′-indene]-4-carboxylic acid]	0.585	–	230	–
C[C@@H](COc1ccnc2c1[C@H](C)CCC2)C[C@@H]1Cc2ccc(OCC3CC3)cc2[C@]12CC[C@@](Nc1cccc(Cl)c1)(C(=O)O)CC2 [Example 790, (1r,2′R,4R)-4-(3-chloroanilino)-6′-(cyclopropylmethoxy)-2′-[(2R)-2-methyl-3-{[(5R)-5-methyl-5,6,7,8-tetrahydroquinolin-4-yl]oxy}propyl]-2′,3′-dihydrospiro[cyclohexane-1,1′-indene]-4-carboxylic acid]	0.764	–	1460	–
Cc1ccc2c(c1)CN(C[C@@H](C)COc1ccnc3c1[C@H](C)CCC3)[C@]21CC[C@](Nc2ccc(F)c(Cl)c2)(C(=O)O)CC1 [Example 54, (1s,4S)-4-(3-chloro-4-fluoroanilino)-5′-methyl-2′-[(2R)-2-methyl-3-{[(5R)-5-methyl-5,6,7,8-tetrahydroquinolin-4-yl]oxy}propyl]-2′,3′-dihydrospiro[cyclohexane-1,1′-isoindole]-4-carboxylic acid]	–	0.177	177	–
COc1cc2c(cc1F)CN(C[C@@H](C)COc1ccnc3c1[C@H](C)CCC3)[C@]21CC[C@](Nc2cccc(Cl)c2)(C(=O)O)CC1 [Example 43, (1s,4S)-4-(3-chloroanilino)-5′-fluoro-6′-methoxy-2′-[(2R)-2-methyl-3-{[(5R)-5-methyl-5,6,7,8-tetrahydroquinolin-4-yl]oxy}propyl]-2′,3′-dihydrospiro[cyclohexane-1,1′-isoindole]-4-carboxylic acid]	–	0.25	162	–
C[C@@H](COc1ccnc2c1[C@H](C)CCC2)CN1Cc2cc3c(cc2[C@]12CC[C@@](Nc1ccc(F)c(Cl)c1)(C(=O)O)CC2)OCO3 [Example 47, (1s,4S)-4-(3-chloro-4-fluoroanilino)-6′-[(2R)-2-methyl-3-{[(5R)-5-methyl-5,6,7,8-tetrahydroquinolin-4-yl]oxy}propyl]-6′,7′-dihydro-2′H-spiro[cyclohexane-1,5′-[1,3]dioxolo[4,5-f]isoindole]-4-carboxylic acid]	–	0.0933	37.4	–
C[C@@H](COc1ccnc2c1[C@H](C)CCC2)C[C@H]1Cc2cc3c(cc2[C@]12CC[C@@](Nc1ccc(Cl)c(Cl)c1)(C(=O)O)CC2)OCO3 [Example 887, (1r,4S,6′S)-4-(3,4-dichloroanilino)-6′-[(2R)-2-methyl-3-{[(5R)-5-methyl-5,6,7,8-tetrahydroquinolin-4-yl]oxy}propyl]-6′,7′-dihydro-2′H-spiro[cyclohexane-1,5′-indeno[5,6-d][1,3]dioxole]-4-carboxylic acid]	0.293	–	151	–
C[C@@H](COc1ccnc2c1[C@H](C)CCC2)C[C@H]1Cc2ccccc2[C@]12CC[C@@](Oc1cccc(Cl)c1)(C(=O)O)CC2 [Example 717, (1r,2′S,4S)-4-(3-chlorophenoxy)-2′-[(2R)-2-methyl-3-{[(5R)-5-methyl-5,6,7,8-tetrahydroquinolin-4-yl]oxy}propyl]-2′,3′-dihydrospiro[cyclohexane-1,1′-indene]-4-carboxylic acid]	2.28	–	367	–

Continued, in another order:

Ki [1] [nM]	Ki ([1]; Ki determined from IC50) [nM]	SMILES	IC50 (NCI-H929 cell lines; Homo sapiens, NCI-H929, 48 h) [nM]	IC50 (NCI-H929 cell lines) [nM]
0.0173	–	CC1Oc2cc3c(cc2O1)[C@]1(CC[C@@](Nc2cccc(Cl)c2)(C(=O)O)CC1)[C@@H](C[C@@H](C)COc1ccnc2c1[C@H](C)CCC2)C3 (single isomer, unassigned) [Example 965]	68.8	–
0.0323	–	CCC1COc2cc3c(cc2OC1)[C@]1(CC[C@@](Nc2cccc(Cl)c2)(C(=O)O)CC1)[C@@H](C[C@@H](C)COc1ccnc2c1[C@H](C)CCC2)C3 (single isomer, unassigned) [Example 988]	–	204
0.0238	–	C[C@@H](COc1ccnc2c1[C@H](C)CCC2)C[C@H]1Cc2cc3c(cc2[C@]12CC[C@@](Nc1cccc(Cl)c1)(C(=O)O)CC2)OCC(C)(C)CO3 [Example 981, (1r,4S,8′S)-4-(3-chloroanilino)-3′,3′-dimethyl-8′-[(2R)-2-methyl-3-{[(5R)-5-methyl-5,6,7,8-tetrahydroquinolin-4-yl]oxy}propyl]-3′,4′,8′,9′-tetrahydro-2′H-spiro[cyclohexane-1,7′-indeno[5,6-b][1,4]dioxepine]-4-carboxylic acid]	86	–
0.0106	–	[2H]c1c([2H])c(Cl)c([2H])c(N[C@]2(C(=O)O)CC[C@]3(CC2)c2cc4c(cc2C[C@@H]3C[C@@H](C)COc2ccnc3c2[C@H](C)CCC3)OCO4)c1[2H] [Example 844, (1r,4S,6′S)-4-{[3-chloro(2H4)phenyl]amino}-6′-[(2R)-2-methyl-3-{[(5R)-5-methyl-5,6,7,8-tetrahydroquinolin-4-yl]oxy}propyl]-6′,7′-dihydro-2′H-spiro[cyclohexane-1,5′-indeno[5,6-d][1,3]dioxole]-4-carboxylic acid]	29.2	–
0.0834	–	C[C@@H](COc1ccnc2c1[C@H](C)CC[C@H]2C)C[C@H]1Cc2cc3c(cc2[C@]12CC[C@@](Nc1cccc(Cl)c1)(C(=O)O)CC2)OCO3 [Example 960, (1r,4S,6′S)-4-(3-chloroanilino)-6′-[(2R)-3-{[(5R,8R)-5,8-dimethyl-5,6,7,8-tetrahydroquinolin-4-yl]oxy}-2-methylpropyl]-6′,7′-dihydro-2′H-spiro[cyclohexane-1,5′-indeno[5,6-d][1,3]dioxole]-4-carboxylic acid]	77.5	–
